Laboratory results taken from US10138245B2, “Fused triazole derivatives as phosphodiesterase 10A inhibitors” (Celon Pharma S.A., priority 2014, dated 2018).

What was measured:
[1] = Metabolic stability in rat liver microsomal fraction; assay type: in vitro ADME; settings: liver microsomes, 37° C., phase I cofactors; for microsomal CLint: read-out: Cl(int)
Description: Tested compounds were incubated in triplicates with rat liver microsomal fraction at 37° C. in the presence of metabolic phase I cofactors (NADP, G6P, G6P dehydrogenase, MgCl2) necessary for metabolic transformations. Concentration of a non-metabolized tested compound in the reaction mixture was measured using LC/MS method at 4 time points: after 0, 20, 40 and 60 min of incubation. The AUC of compounds at those time points were compared with AUC at point 0 to obtain % loss of parental compound. The obtained data were used for calculation of internal clearance (Cl(int)) and half-life (T½). The metabolic activity of microsomes was assessed by measuring the stability of two standards with low and high metabolic stability, propranolol and donepezil, respectively.

[2] = molecular target: Recombinant human phosphodiesterase 10A (PDE10A) (Homo sapiens (Human), UniProt Q9Y233); test: Assay of phosphodiesterase 10 inhibition in vitro (PDE-Glo luminescent method); assay type: biochemical; settings: averaged IC50 values, read-out: hPDE10A1 IC50
Recombinant human phosphodiesterase 10A (PDE10A), sequence (Q9Y233 267-1055): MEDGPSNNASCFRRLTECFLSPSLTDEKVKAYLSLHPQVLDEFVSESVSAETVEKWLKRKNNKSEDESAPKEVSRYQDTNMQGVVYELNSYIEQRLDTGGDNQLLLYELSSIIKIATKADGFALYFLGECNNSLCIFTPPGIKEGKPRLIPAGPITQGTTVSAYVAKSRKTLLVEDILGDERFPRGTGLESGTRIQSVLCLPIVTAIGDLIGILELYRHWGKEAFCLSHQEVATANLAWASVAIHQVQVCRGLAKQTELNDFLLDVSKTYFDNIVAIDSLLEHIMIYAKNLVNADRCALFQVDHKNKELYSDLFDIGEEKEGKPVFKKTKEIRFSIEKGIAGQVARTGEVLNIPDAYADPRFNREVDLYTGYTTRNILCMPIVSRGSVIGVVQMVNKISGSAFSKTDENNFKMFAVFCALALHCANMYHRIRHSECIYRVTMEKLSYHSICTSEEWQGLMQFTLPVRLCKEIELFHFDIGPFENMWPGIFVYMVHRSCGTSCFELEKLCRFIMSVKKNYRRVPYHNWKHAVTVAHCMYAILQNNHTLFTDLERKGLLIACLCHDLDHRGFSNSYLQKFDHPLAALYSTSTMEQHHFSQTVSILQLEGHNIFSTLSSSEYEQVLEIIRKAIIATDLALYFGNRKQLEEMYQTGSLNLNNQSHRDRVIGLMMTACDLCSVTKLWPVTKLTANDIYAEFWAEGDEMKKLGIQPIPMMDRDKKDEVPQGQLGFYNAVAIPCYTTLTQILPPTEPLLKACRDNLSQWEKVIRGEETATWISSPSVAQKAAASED
Description: 1. Assay of Phosphodiesterase 10 Inhibition In Vitro
Recombinant human phosphodiesterase 10A (PDE10A) purified to homogeneity from Sf9 cells overexpressing PDE10A gene (GenBank/EMBL accession number: NM_001130690) was used for inhibition tests.
Inhibitory activity of the compounds towards PDE10A was tested using PDE-Glo (Promega Corporation, Madison, USA) luminescent method on 96-well plates. Test was performed for 8 concentrations of the compounds. Test compounds were dissolved in 100% DMSO and resulted solutions were diluted 5× in concentrated PDE-Glo Reaction Buffer. Eight concentrations of each tested compound were obtained by subsequent dilution. 5 μl of obtained solutions were added into the wells of 96-well plate. Next, 7.5 μl of a solution containing […] enzyme diluted in 1× concentrated PDE-Glo Reaction Buffer were added into the well to obtain the final amount of 2-10 ng (depending on the activity of the enzyme batch used in the study). In order to facilitate interaction between compounds and the enzyme, plates were incubated for 1 minute at room temperature and then 9 minutes at 4° C. Reaction was initiated by addition of 12.5 μl of 2 μM cAMP solution into the well and subsequently plate was incubated at 30° C.
After 40 minutes reaction was stopped by addition of 12.5 μl of PDE-Glo Termination Buffer with high concentration of a known PDE10 inhibitor. Plate content was stirred with orbital shaker at 500 RPMs for 10 minutes and then in the next step 12.5 μl of freshly prepared PDE-Glo Detection Solution were added into the well.
Plate was incubated for 20 minutes at room temperature before 50 μl of Kinase Glo reagent (Promega Corporation, Madison, USA) was applied into the wells and incubation at room temperature was continued for the next 10 minutes. After incubation, luminescence intensity in wells was measured with the Victor Light (Perkin Elmer Inc.) luminometer.
Percent of PDE10A inhibition by tested compounds was determined based on luminescence intensity measurements in wells containing test compounds and in control wells. Results were then fitted using a four-parameter logistic fit in GraphPad Prism 5.03 software (GraphPad Software Inc.). Negative control wells contained all above mentioned reagents except test compounds and positive control wells contained all above mentioned reagents except test compounds and the PDE10A enzyme. Each chemical compound was assayed in at least two independent runs (2×96-well plate in duplicate) with at least 3 wells of each of the controls.

Cc1ncc(C)n2nc(-c3ccn4cc(-c5ccccc5)nc4c3)nc12 [Ex. 1 of WO2013003298, reference compound]
half-life [1]: 0.559 h
microsomal CLint [1]: 68.9 µL/min/mg

Cc1cc(C)n2nc(-c3ccc4[nH]c(-c5ccccc5)nc4c3)nc2n1 [Example 1, 5,7-Dimethyl-2-(2-phenyl-1H-benzo[d]imidazol-5-yl)-[1,2,4]triazolo-[1,5-a]pyrimidine]
IC50 [2]: 47 nM

Cc1ncc(C)n2nc(-c3ccc4[nH]c(-c5ccccc5F)nc4c3)nc12 [Example 2, 2-[2-(2-Fluorophenyl)-1H-benzo[d]imidazol-5-yl]-5,8-dimethyl-[1,2,4]-triazolo[1,5-a]pyrazine]
IC50 [2]: 37 nM

Cc1cc(C)n2nc(-c3ccc4[nH]c(-c5ccccn5)nc4c3)nc2n1 [Example 3, 5,7-Dimethyl-2-[2-(pyridin-2-yl)-1H-benzo[d]imidazol-5-yl]-[1,2,4]triazolo[1,5-a]pyrimidine]
IC50 [2]: 279 nM

Cc1ncc(C)n2nc(-c3ccc4[nH]c(-c5ccccc5)nc4c3)nc12 [Example 4, 5,8-Dimethyl-2-(2-phenyl-1H-benzimidazol-5-yl)[1,2,4]triazolo[1,5-a]pyrazine]
half-life [1]: 1.05 h
microsomal CLint [1]: 36.8 µL/min/mg
IC50 [2]: 27 nM

Cc1cc(C)n2nc(-c3ccc4[nH]c(-c5ccncc5)nc4c3)nc2n1 [Example 5, 5,7-Dimethyl-2-[2-(pyridin-4-yl)-1H-benzimidazol-5-yl][1,2,4]triazolo[1,5-a]pyrimidine]
IC50 [2]: 953 nM

Cc1ncc(C)n2nc(-c3ccc4[nH]c(-c5cccc(F)c5)nc4c3)nc12 [Example 6, 2-[2-(3-Fluorophenyl)-1H-benzimidazol-5-yl]-5,8-dimethyl[1,2,4]triazolo[1,5-a]pyrazine]
IC50 [2]: 172 nM

Cc1ncc(C)n2nc(-c3ccc4[nH]c(-c5ccc(F)cc5)nc4c3)nc12 [Example 7, 2-[2-(4-Fluorophenyl)-1H-benzimidazol-5-yl]-5,8-dimethyl[1,2,4]triazolo[1,5-a]pyrazine]
IC50 [2]: 54 nM

Cc1ncc(C)n2nc(-c3ccc4[nH]c(-c5nccs5)nc4c3)nc12 [Example 8, 5,8-Dimethyl-2-[2-(1,3-thiazol-2-yl)-1H-benzimidazol-5-yl][1,2,4]triazolo[1,5-a]pyrazine]
IC50 [2]: 84 nM

Cc1ncc(C)n2nc(-c3ccc4[nH]c(-c5ccccn5)nc4c3)nc12 [Example 40, 5,8-Dimethyl-2-[2-(pyridin-2-yl)-1H-benzimidazol-5-yl][1,2,4]triazolo[1,5-a]pyrazine]
IC50 [2]: 63 nM

COc1ccccc1-c1nc2cc(-c3nc4c(C)ncc(C)n4n3)ccc2[nH]1 [Example 41, 2-[2-(2-Methoxyphenyl)-1H-benzimidazol-5-yl]-5,8-dimethyl[1,2,4]triazolo[1,5-a]-pyrazine]
IC50 [2]: 19.5 nM

Cc1cc(C)n2nc(-c3ccc4c(c3)nc(-c3ccccc3)n4C)nc2n1 [Example 48A, 5,7-Dimethyl-2-(1-methyl-2-phenyl-1H-benzo[d]imidazol-5-yl)-[1,2,4]-triazolo[1,5-a]pyrimidine]
IC50 [2]: 794 nM

Cc1cc(C)n2nc(-c3ccc4nc(-c5ccccc5)n(C)c4c3)nc2n1 [Example 48B, 5,7-Dimethyl-2-(1-methyl-2-phenyl-1H-benzo[d]imidazol-6-yl)-[1,2,4]-triazolo[1,5-a]pyrimidine]
IC50 [2]: 413 nM

Cc1cc(C)n2nc(-c3ccn4cc(-c5ccccc5)nc4n3)nc2n1 [Example 56, 5,7-Dimethyl-2-(2-phenylimidazo[1,2-a]pyrimidin-7-yl)[1,2,4]triazolo-[1,5-a]pyrimidine]
IC50 [2]: 96 nM

Cc1ncc(C)n2nc(-c3ccn4cc(-c5ccccc5)nc4n3)nc12 [Example 57, 5,8-Dimethyl-2-(2-phenylimidazo[1,2-a]pyrimidin-7-yl)[1,2,4]triazolo[1,5-a]pyrazine]
half-life [1]: 1.1 h
microsomal CLint [1]: 34.9 µL/min/mg
IC50 [2]: 35.7 nM
